Assay results from patent publication US12458809B2, “Method and system of using plasma discharge tube for sensitization of cancer cells” (The George Washington University, priority 2019, dated 2025).

What was measured:
[1] = tested on: A172 glioblastoma cells; experiment: MTT cell viability assay, A172 glioblastoma cells, TMZ with or without plasma discharge tube electro-magnetic field; assay type: cell-based, human
Experimental: (§1) In one experiment conducted using the test system 10 in FIGS. 1A-1B, human glioblastoma cancer cell lines U87 and A172 as well as […] E6/E7 were provided from the ATCC (City of Manassas, VA), and were grown in Dulbecco's Modified Eagle Medium (Gibco) supplemented with 10% fetal bovine serum (Atlanta Biologicals) and 1% penicillin-streptomycin solution (Invitrogen) under standard cell culture conditions (humidified atmosphere with 5% CO2 at 37° C.). After one passage, 10,000 cells in 100 μL medium were seeded into 96-well plates such as the plate 134 in FIG. 1A. The cells were cultured for 24 hours before the experiment was performed to ensure proper cell attachment and stability.
(§2) Cell viability was analyzed by using an MTT assay available from Sigma-Aldrich, which is a colorimetric assay for analyzing the cell metabolic activity. The MTT protocol is based on NAD(P)H-dependent cellular oxidoreductases, which reduces the water-soluble MTT ((3-(4,5-dimethylthiazol-2-yl)-2,5-diphenyltetrazolium bromide) to an insoluble formazan product. Cells with active metabolism can transform MTT into formazan; however, dead cells cannot transform MTT into formazan and will not show detectable signal. The measured absorbance at OD 590 nm is proportional to the number of viable cells.
(§3) Following treatment with an electro-magnetic field generated from the example plasma tube, the cells were cultured for 72 hours. A total of 100 μL MTT solution (7 mg Thiazolyl Blue Tetrazolium Blue in 10 ml DMEM) was added to each well. Cells were cultured for an additional 3 hours at 37° C., and then the MTT solution was aspirated and a 100 μL solvent was added to dissolve the formazan crystals. The result was recorded with a Synergy H1 Hybrid Multi-Mode Microplate Reader at 570 nm. For each condition (treatment time, voltage, drug concentration), the experiments were performed in triplicates and were repeated independently 3 times.
In this example, four different experimental cell groups were used. The first experimental group was the control group. […]

[2] = tested on: U87 glioblastoma cells; experiment: MTT cell viability assay, U87 glioblastoma cells, TMZ with or without plasma discharge tube electro-magnetic field; assay type: cell-based, human; conditions: for inhibition of the growth of U87 cells: then 180 μM TMZ
Experimental: as §1, §2, §3
In this example, four different experimental cell groups were used. The first experimental group was the control group. For each well of the plates for the control group, the cell culture media was removed before the treatment applied to the other experimental groups. After the treatment was applied to the other experimental groups, 100 μL, fresh cell culture media for each well was added to the cells of the control group.
The second experimental group is the tube-only group. For the tube-only group, the cell culture media was removed before the treatment as well. After that, the cells were treated by placing the plate 134 on the side of the discharge tube 100 in FIG. 1A, with a distance of 1 and 5 mm between the plate 134 and the tube 100. The cells in the plate were exposed to the electro-magnetic field for 1, 4 and 7 minutes. 100 μL fresh cell culture media for each well was added to the cells after the treatment.
The third experiment group is the drug-only group. For the drug-only group, the cell culture media was removed before the treatment via electro-magnetic field applied to the other experimental groups. After the treatment of the other groups, 100 μL fresh cell culture media with 180, 250, 320 μM of TMZ for each well was added to the cells.
The last experimental group is a combination group. For the combination group, the cell culture media was removed before the treatment as well. Then, the cells were treated by placing the plate 134 on the side of the discharge tube 100 at a distance of 1 and 5 mm. The electro-magnetic field was applied for 1, 4 and 7 minutes. Following the treatment, 100 μL, fresh cell culture media with 180, 250, and 320 μM of TMZ for each well was added to the cells.

[3] = tested on: hTERT/E6/E7 cells; experiment: MTT cell viability assay, non-cancerous hTERT/E6/E7 cells, TMZ with or without plasma discharge tube electro-magnetic field; assay type: cell-based; conditions: after a single 7-minute treatment with discharge tube, E6/E7 non-tumor cell line
Experimental: as §1
as §2, with “cells. […]” for “cells.”

`Cn1nnc2c(C(N)=O)ncn2c1=O` [TMZ, Temozolomide] was tested, and the “reduction of cell viability of A172 cells” value ([1]; 7 minutes electro-magnetic field exposure at 1 mm, then 250 μM TMZ) was 76%, the inhibition at 250 µM ([1]; Homo sapiens, A 172, 250 μM TMZ, read-out: cell growth inhibition of A172 cells) was 23% and the “increase of anti-cancer efficacy of TMZ (factor)” value ([1]; after a single 7-minute treatment with discharge tube, A172) was over 2. The “inhibition of the growth of U87 cells (killing effect)” value ([2]; 1, 4 or 7 minute electro-magnetic field exposure at 1 mm, then 320 μM TMZ) was about 80%, the “inhibition of the growth of U87 cells” value ([2]; 1 minute electro-magnetic field exposure) was 24% and the “inhibition of the growth of U87 cells” value ([2]; 4 minute electro-magnetic field exposure) was 38%. The “inhibition of the growth of U87 cells” value ([2]; 7 minute electro-magnetic field exposure) was 72%, the “increase in U87 cell death compared with non-cancerous cells” value ([2]; 7 minutes electro-magnetic field exposure prior to TMZ treatment (FIG. 7)) was 43% and the inhibition at 180 µM ([2]; Homo sapiens, U-87 MG, 72 h, 180 μM TMZ only, no electro-magnetic field, 72 h, read-out: growth inhibition / cell death of U87 cells) was 21%. For the same compound, the “higher cell death in U87 cells compared to E6/E7 cells” value ([2]; TMZ-only treatment (FIG. 7)) was 12%, the “increase of anti-cancer efficacy of TMZ (factor)” value ([2]; after a single 7-minute treatment with discharge tube, U87) was over 2 and the “killing effect on U87 cells” value ([2]; electro-magnetic field exposure at 5 mm (so in the source); FIG. 4E) plus TMZ) was 60%. The “increase of anti-cancer efficacy of TMZ” value [3] was “no significant effect”.
